Tests used:
LNCaP95 cells = assay: Cell proliferation (BrdU incorporation), LNCaP95; type: cell-based; conditions: 48 h
Method: Cells were pulse-labeled with 10 μM BrdU for 2 h. Cells were fixed, and BrdU-labeled cells were identified with anti-BrdU-peroxidase (Roche Applied Science). BrdU incorporation was measured at 570 nm using a VersaMax ELISA microplate reader (Molecular Devices). At least three independent experiments with six technical replicates were analyzed, and average values are indicated.

AR NTD = target: T1, AR NTD (Homo sapiens, UniProt P10275); assay: Transactivation of AR NTD (AR-(1–558)-Gal4 DBD, 5xGal4UAS-TATA-luciferase) in LNCaP cells; type: cell-based; conditions: for IL-6-induced transactivation of AR NTD: 20 μM SINT1 or 25 μM EPI-002, 50 ng/ml IL-6 24 h; for forskolin-induced transactivation of AR NTD: 20 μM SINT1 or 25 μM EPI-002, 50 μM forskolin 24 h
T1 construct: expression vector for AR NTD encoding amino acids 1–558 fused to the Gal4 DBD; expressed in transfected cells; host or cells: LNCaP
T1 sequence (P10275 1-558): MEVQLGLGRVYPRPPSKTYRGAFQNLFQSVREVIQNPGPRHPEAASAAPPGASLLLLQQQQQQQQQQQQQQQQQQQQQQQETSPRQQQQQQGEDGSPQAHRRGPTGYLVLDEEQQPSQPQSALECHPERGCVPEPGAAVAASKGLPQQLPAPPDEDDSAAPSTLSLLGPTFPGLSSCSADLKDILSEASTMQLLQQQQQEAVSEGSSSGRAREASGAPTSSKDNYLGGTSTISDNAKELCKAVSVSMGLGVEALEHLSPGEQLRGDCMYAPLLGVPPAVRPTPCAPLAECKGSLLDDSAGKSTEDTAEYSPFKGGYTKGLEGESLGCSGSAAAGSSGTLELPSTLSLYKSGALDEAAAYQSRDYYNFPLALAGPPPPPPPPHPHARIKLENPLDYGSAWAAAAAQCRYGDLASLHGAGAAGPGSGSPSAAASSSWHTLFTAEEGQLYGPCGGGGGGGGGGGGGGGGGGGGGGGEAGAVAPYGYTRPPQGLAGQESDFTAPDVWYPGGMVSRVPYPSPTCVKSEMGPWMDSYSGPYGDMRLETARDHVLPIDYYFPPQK
Method: LNCaP cells were co-transfected with 5xGal4UAS-TATA-luciferase and AR-(1–558)-Gal4 DBD prior to pretreatment with 20 μM SINT1 or 25 μM EPI-002, which binds to the AR NTD to block AR transcriptional activity. NTD activity was induced by incubation with 50 μM forskolin or 50 ng/ml IL-6 for an additional 24 h ([7], [8]).
To test whether SINT1 can inhibit transactivation of AR NTD, LNCaP cells were co-transfected with an expression vector for AR NTD encoding amino acids 1–558 fused to the Gal4 DBD and a reporter construct with Gal4 DBD-binding sites. Transactivation of AR NTD is induced by forskolin or IL-6 ([8], [14]).

recombinant AR LBD = target: T2, recombinant AR LBD (Rattus norvegicus, UniProt P15207); assay: Fluorescence polarization competition assay (Androgen Receptor Competitor Assay); type: binding; conditions: AR LBD 25 nM, 1 nM Fluormone AL Green; SINT1 and EPI-002 tested at 0.5–50 μM
T2 construct: purchased Invitrogen
T2 sequence (P15207 651-882 limits assumed): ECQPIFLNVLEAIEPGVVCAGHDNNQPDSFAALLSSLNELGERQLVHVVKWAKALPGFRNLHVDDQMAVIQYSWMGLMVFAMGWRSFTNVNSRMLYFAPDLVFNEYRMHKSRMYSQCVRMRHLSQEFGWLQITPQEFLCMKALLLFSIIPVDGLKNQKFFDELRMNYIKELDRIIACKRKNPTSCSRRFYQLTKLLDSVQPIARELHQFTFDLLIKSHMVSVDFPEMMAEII
Method: The Androgen Receptor Competitor Assay (Green) kit (Invitrogen) was used. […] The reactions with serial dilutions of test compounds were completed in 40-μl aliquots in triplicates. Displacement of Fluormone AL Green from AR LBD by the test compounds was measured by the change in fluorescence polarization using Infinite® M1000 (Tecan) with excitation at 470 nm and emission at 535 nm.
To determine whether the mechanism of action of SINT1 to inhibit androgen-induced AR transcriptional activity was mediated by binding to AR LBD, a fluorescence polarization competition assay was used. This assay uses recombinant AR LBD to reveal whether a test compound competes for ligand binding of Fluoromone that binds to this domain.

AR-YFP = target: T3, AR-YFP (Homo sapiens, UniProt P10275); assay: AR nuclear translocation (AR-YFP) in LNCaP cells; type: cell-based; conditions: 10 μM compound
T3 construct: expressed in transfected cells; host or cells: LNCaP
T3 sequence (P10275 1-920): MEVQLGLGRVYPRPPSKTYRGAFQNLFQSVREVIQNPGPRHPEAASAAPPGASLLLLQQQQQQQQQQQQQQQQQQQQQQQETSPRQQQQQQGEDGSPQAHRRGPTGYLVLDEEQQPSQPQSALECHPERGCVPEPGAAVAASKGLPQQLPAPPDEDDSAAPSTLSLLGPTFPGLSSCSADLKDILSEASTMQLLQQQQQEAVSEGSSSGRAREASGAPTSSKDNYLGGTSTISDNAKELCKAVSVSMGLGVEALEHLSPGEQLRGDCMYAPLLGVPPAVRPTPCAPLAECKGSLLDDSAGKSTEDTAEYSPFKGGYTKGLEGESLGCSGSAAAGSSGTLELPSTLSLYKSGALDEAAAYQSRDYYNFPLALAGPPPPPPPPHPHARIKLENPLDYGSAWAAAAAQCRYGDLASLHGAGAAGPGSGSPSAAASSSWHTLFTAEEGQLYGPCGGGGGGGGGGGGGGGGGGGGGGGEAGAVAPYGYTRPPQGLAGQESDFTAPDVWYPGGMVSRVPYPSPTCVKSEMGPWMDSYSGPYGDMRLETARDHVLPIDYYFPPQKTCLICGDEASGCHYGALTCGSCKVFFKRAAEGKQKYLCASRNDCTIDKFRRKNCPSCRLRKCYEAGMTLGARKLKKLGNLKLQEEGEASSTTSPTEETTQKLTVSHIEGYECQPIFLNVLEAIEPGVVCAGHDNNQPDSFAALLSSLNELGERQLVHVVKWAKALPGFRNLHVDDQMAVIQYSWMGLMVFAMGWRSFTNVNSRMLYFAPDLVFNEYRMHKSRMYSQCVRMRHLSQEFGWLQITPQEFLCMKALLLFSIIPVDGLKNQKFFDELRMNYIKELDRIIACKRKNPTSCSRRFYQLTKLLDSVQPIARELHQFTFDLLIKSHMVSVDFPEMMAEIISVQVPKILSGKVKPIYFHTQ
Method: Cells were exposed to 1 nM R1881 for an additional 2 h, fixed with paraformaldehyde, and mounted in Vectashield antifade mounting medium with DAPI (H-1200, Vector Laboratories). Cellular localization of AR was examined by fluorescence microscopy using an Axiovert 200 microscope equipped with a YFP filter (excitation, 500/20 nm; emission, 535/30 nm; Zeiss, Toronto, Ontario, Canada). Images were taken using a Axiocam MR camera and the AxioVision 4.4 software (Zeiss, Toronto, ON, Canada).

PC3 cells = tested on: PC3 cells; design: method as in PMID 18834139; conditions: cited from earlier work

SMILES	proliferation of LNCaP95 cells (LNCaP95 cells)	IL-6-induced transactivation of AR NTD (AR NTD)	forskolin-induced transactivation of AR NTD (AR NTD)	competition with Fluoromone for binding to AR LBD (recombinant AR LBD)	nuclear translocation of AR in the absence of androgen (AR-YFP)	nuclear translocation of AR in the presence of androgen (AR-YFP; 1 nM R1881 2 h)	effect on PC3 cells that do not depend on AR for growth and survival (PC3 cells)
CC(C)(c1ccc(OC[C@H](O)CO)cc1)c1ccc(OC[C@H](O)CCl)cc1 [EPI-002, reference compound]	inhibited	potent inhibitor	significantly inhibited	did not compete			
CCC(=O)NC(CC(C)C(Cl)(Cl)Cl)C(=O)N1C(=O)C=C(OC)C1CC(C)C(Cl)Cl (centres unmarked) [SINT1, Sintokamide A]	inhibited	no significant effect	significantly inhibited	did not compete	AR remained cytoplasmic	Androgen induced AR translocation to the nucleus regardless of treatments	no effect
